Patent publication US20030129205A1, “Composition and method for the prevention and/or the treatment of allergy” (priority 2000, published 2003)

What was measured:
CD4+ T cells = experiment: in vitro T cell proliferation assay ([3H]thymidine incorporation) with T cells of immunized Balb/c mice; type: cell-based, mouse; details: for proliferation of T cells from immunized mice: Balb/c (H-2d) mice immunized in footpad with 100 μg in complete Freund's adjuvant, lymph node CD4+ T cells restimulated in vitro with myoglobin or Der p II; for immunogenicity: Balb/c mice, subcutaneous immunization
Description: In order to determine experimentally whether this sequence homology could result in functional cross-reactivity between Der p II and myoglobin, mice were immunized by subcutaneous injections of FIS (SEQ ID NO. 2) or myoglobin.
Balb/c mice (H-2^d) were injected once in the footpad with 50 μl of a solution containing 100 μg of peptide or myoglobin emulsified in complete Freund's adjuvant. Ten days later, regional lymph nodes were retrieved, teased and extensively washed with sterile saline to recover cells. The cell suspension was then washed in RPMI buffer (Gibco). Pure CD4^+ T cell suspensions were obtained by negative selection using antibodies towards CD45R, CD11b and CD11c, all conjugated to magnetic beads according to the manufacturer's instructions (Miltenyi Biotech GmbH, Germany).
(§1) Functional cross-reactivity between Der p II, FIS and myoglobin was checked by in vitro proliferation assays. Thus, the T cell suspension was adjusted to 5×10^6 cells per ml in RPMI 1640 buffer supplemented with 2 mM glutamine, 100 U penicillin/ml, 100 jug streptomycin/ml, 5% heat-inactivated fetal calf serum and 5×10^−5 M 2-mercaptoethanol. One hundred μl of the T-cell-enriched fraction ([…]) was cultured in 100 μl of the above-described medium containing different concentrations of test peptide or myoglobin, and mitomycin-C treated syngeneic naive spleen cells as a source of APC (4×10^5 per well). Incubation was carried out into a humidified atmosphere of 5% CO2 in air for 4 days, and cells were pulsed during a final 18-h incubation with 1 μCi of [^3H] thymidine per well. The cells were then harvested onto glass fibres using a multiple-cell harvester. Radioactivity incorporated into proliferating cells was determined in a liquid scintillation counter. All tests were carried out in triplicate. The proliferative response was expressed as c.p.m.×10 after subtracting background value incorporation in the absence of antigen.

mouse T cells = experiment: T cell proliferation assay in mice of additional H-2 haplotypes; type: cell-based; details: H-2b (C57BL/6), H-2k (C3H), H-2d (SJL) as printed; significant proliferative response for the three haplotypes
[1] = system: T cells from peripheral blood; experiment: proliferation assay with T cells from peripheral blood of atopic individuals; type: cell-based
Description: as §1
Moreover, T cells were prepared from the peripheral blood of atopic individuals. Thus, a 50-ml sample of peripheral blood was obtained in heparin. The blood sample was diluted vol/vol in RPMI 1640 and applied to a Ficoll-Hypaque density gradient. […]

| Molecule | proliferation of T cells from immunized mice (CD4+ T cells) | immunogenicity (CD4+ T cells) | recognition of T cell epitope in additional mouse H-2 haplotypes (mouse T cells) | proportion of human subjects recognising the T cell epitope [1] |
| --- | --- | --- | --- | --- |
| FISEAIIHVLHSR (Physeter catodon) | proliferated to myoglobin and to Der p II | immunogen |  |  |
| SEPCIIHRGKP (Dermatophagoides) [SEQ ID NO. 1] |  |  | recognised in the context of three additional mouse H-2 haplotypes | more than 85% |
| myoglobin: Sheep myoglobin purchased from Sigma Chemicals; red pigment, oxygen reservoir of muscle cells (protein, UniProt P02190 2-154, looked up) Myoglobin: GLSDGEWQLVLNAWGKVEADVAGHGQEVLIRLFTGHPETLEKFDKFKHLKTEAEMKASEDLKKHGNTVLTALGGILKKKGHHEAEVKHLAESHANKHKIPVKYLEFISDAIIHVLHAKHPSDFGADAQGAMSKALELFRNDMAAQYKVLGFQG | proliferated to myoglobin and to Der p II | immunogen |  |  |
